# Legend:
# microglial cells [1] = experiment: Western blot of cleaved caspase-3 and cleaved PARP in ex vivo cultured microglial cells; type: cell-based, mouse
# Description: Isolation of microglia, neuron, astrocytes, and oligodendrocytes from the brain. Mice were anaesthetized with a mixture of ketamine (16%) and xylazine (3%) by intraperitoneal injection and then sacrificed under basal conditions by transcardial perfusion with perfusion buffer (Ca^2+/Mg^2+ free HBSS containing 0.5 mM EGTA, 10 mM HEPES and 4.2 mM NaHCO3; pH 7.2). The perfused brain was removed and gently mechanically disaggregated with tweezers in dissociation buffer (HBSS containing 10 mM HEPES and 4.2 mM NaHCO3 supplemented with Type I collagenase (0.05%), Dispase II (25 mg/ml), DNase I (2.5 mg/ml), trypsin inhibitor ([…]); pH 7.5) followed by incubation at 37° C. for 1 hour. The tissue homogenate was centrifuged at 1,350×g for 5 minutes at 4° C. For the isolation of microglia, the digestion enzymes in the tissue homogenate were inactivated by addition of PBS/EDTA containing 5% fetal bovine serum (FBS) and the digested brain bits were triturated gently, passed over a 100 µm filter (Fisher Scientific) and centrifuged. […] The pellet of cells was rinsed in PBS. Any contaminating red blood cells (RBC) were lysed using RBC lysis buffer (Sigma) according to the manufacturer's instructions, rinsed twice with PBS and passed through a 40 µm filter (Fisher Scientific). Cells were then stained for CD11b and CD45 for flow cytometry analysis. The astrocytes were isolated from mouse cortices (n=10). The tissue homogenate was centrifuged at 800×g for 10 minutes at 4° C. following digestion with type II collagenase (1 mg/ml) and type I DNase (10 U/ml) in DMEM for 10 minutes. The cells pelleted by centrifugation were plated in a 100 mm culture dish coated with poly-L-ornithine (Sigma). For the isolation of oligodendrocytes, the glial cells above were cultured in specific media containing T3 and T4 (0.5 mM) as well as platelet-derived growth factor (PDGF, 10 ng/ml) to promote the growth of the different cell types. Isolated glial cells were labelled with the following antibodies against surface markers: CD11b (Biolegend, Cat #101206), CD45 (Biolegend, Cat #147710), GFAP (Biolegend, Cat #837508) and MOG (Biorbyt, Cat #orb412341-FITC). Cells positive for CD11b and CD45Med were identified as microglia. Cells positive for GFAP and negative for CD45 and CD11b were identified as astrocytes. Cells sorted with MOG+CD11b− were identified as oligodendrocytes. Neurons were isolated from mouse brain using the Pierce Primary Neuron Isolation Kit (Thermo Scientific, Cat #88280). Briefly, the tissue homogenate from freshly dissected cortexes was suspended in an equal volume of ice cold HBSS (Sigma) and replaced with Neuronal Isolation Enzyme (with papain) in a 37° C. incubator for 30 minutes. After washing with HBSS, the tissue was cultured in a poly-D-lysine coated plate with Neuronal Culture Medium.
# Western blotting. Cells were treated as indicated in individual Figure legends and whole cell extracts (WCE) were prepared in the radioimmunoprecipitation assay (RIPA) buffer (Sigma) with addition of protease and phosphatase inhibitors (Roche). Proteins were separated by 10% SDS-PAGE and transferred to polyvinylidene difluoride (PVDF) membranes (Bio-Rad Laboratories, Inc., Hercules, CA). Dual color precision protein MW markers (BioRad) were separated in parallel. Antibodies were purchased as follows: cleaved-caspase-3 (ab214430), cleaved PARP (ab203467) and GAPDH (ab9657, Abcam) from Abcam; S100A8 (47310) and S100a9 (72590) from Cell Signaling; and Ltf (GTX81085) from GeneTex. The secondary antibodies conjugated to Fluors Alex-488 (A32723) or Alex-594 (A11012) were purchased from Invitrogen (Eugene, OR). The bands were visualized on the Odyssey Imager (LiCor Inc, Lincoln, NE).
# microglial cells [2] = experiment: FACS analysis of apoptotic bodies (ABs) in supernatants of cultured microglial cells; type: cell-based, mouse; settings: microglial cells isolated from young mice
# Description: Flow cytometry. Isolated cells were incubated with blocking solution (0.5% BSA/PBS) for 15 minutes at 4° C. For surface staining, cells were stained with various antibodies at room temperature for 1 hour and then washed with PBS. Washed cells were stained for 40 minutes at 4° C. with the appropriate fluorochrome-conjugated antibodies in PBS with 2% FBS. Data were acquired using a BD FACSCalibur flow cytometer (BD Biosciences, San Jose, CA) and analyzed using FlowJo software (Tree Star Inc., Ashland, OR). The following antibodies purchased from Biolegend were used for flow cytometry: anti-CD11b (101208), anti-CD45 (103112) and FITC Annexin V (640945). For the ABs analysis, extracellular vesicles were collected. To recognize the ABs, as described previously, size gates set based on forward scatter (FSC) were applied in combination with Annexin V staining. From these vesicles total ABs were detected using Annexin V staining events.
# Isolation of apoptotic bodies. Apoptotic bodies (ABs) were isolated from culture supernatants as previously described. Briefly, cell culture medium was harvested and cells were removed by pelleting at 335×g for 10 minutes. To remove cell-debris, supernatants were centrifuged at 1,000×g for 10 minutes, followed by another centrifugation at 2,000×g for 30 minutes to pellet ABs. Pelleted ABs were resuspended and washed with PBS.
# [3] = Interaction of S100p1-G and metabolite: streptavidin pull-down from BV2 cells and LC-MS; type: cell-based, mouse; settings: cell lysates
# Description: Interaction of S100p1-G and metabolite. Microglial BV2 cells (2×10^6) were transfected with biotinylated oligo S100p1-G or mutant using Lipofectamin RNAiMAX Reagent (Thermo Fisher) according to the manufacturer's instructions overnight at 37° C. […] of aged mouse fecal supernatant (from one-gram feces) was added into the cell growth medium. After six hours, the cells were collected in RIPA lysis buffer. […] of cell lysate was incubated with […] of DYNABEADS® Streptavidin beads (Thermo Fisher) at room temperature for 1 h. The bio-oligo complex was eluted with biotin (4 mg/ml)) in 25 mM Tris-HCL containing 0.3 M NaCl (PH 8.5) at 95° C. for 5 minutes. Metabolite analysis was performed with LC-MS.
# [4] = HPLC analysis of IAA and CA in serum and cerebrospinal fluid (CSF) of mice; type: in vivo, mouse; settings: aged mice, intravenous oligo, twice a week for 2 months
# [5] = Morris water maze (MWM) test; type: in vivo, mouse; settings: aged mice, intravenous, twice a week for 2 months
# Description: Morris water maze (MWM) test. Mice were trained in a 122 cm diameter, 50 cm height open-field water maze with non-reflective interior surfaces. The pool water was filled with water maintained at 25±1° C. and mixed with non-toxic white tempera paint. Distinctive and extra-maze cues were marked on the wall at specific locations and were visible to the mice in the maze. Mice were removed from cages, placed into the water from quasi-random start points and allowed a maximum of 60 seconds to probe the escape platform. The inter interval of each trail remained for 15 seconds. For four consecutive days, four trials (training) were recorded each day with a final test on day 5 (FIG. 4A). Performance was evaluated by the mean escape latencies base on every training trial (Vorhees and Williams, 2006).
# [6] = Single-strand gel shift (SSGS) assay; type: binding; settings: oligos (2 μM) incubated with IAA (10 μM), 15% PAGE
# Description: Single-strand gel shift (SSGS) assay. To identify the metabolite binding site of S100A8, we synthesized a series of oligonucleotides (oligos) (Eurofins Genomics LLC, KY) specific to the response putative IAA binding site at the promoter region of S100A8. The oligos ([…]) were incubated with […] of IAA at 37° C. for 30 minutes following electrophoresis on a 15% native PAGE without SDS in 0.5×TBE buffer. The oligos were stained with ethidium bromide ([…]) and visualized under ultraviolet (UV) light.
# Given induction of bacterial metabolite IAA causes the degeneration of microglia by elevation of S100A8 at both the transcription and protein level, we hypothesized that IAA might directly target the promoter of S100A8 and regulate the expression of S100A8. Studying the interaction of metabolites, particularly small molecules, with nucleic acid is challenging due to a lack of appropriate tags for the metabolites. Because of this challenge, we developed a strategy raising the possibility to investigate the interaction of small molecules and nucleic acid.
# To test our hypothesis, we first synthesized short single-DNA strains (around 60 mer length each) whose sequences spanned the promoter of S100A8 (FIG. 13A and Table 5). The site and sequence of the promoter and transcription start site (TSS) were determined according to the entire mRNA (Accession #NC_000069.7 (90,576,378 . . . 90,577,341)) and genomic sequence (Accession #L76381) from the NCBI nucleic acid database (FIG. 13A). These DNA oligos (2 μM) were incubated with IAA (10 μM) following native PAGE analysis (FIG. 4A). […] To define the accurate binding site of IAA, we synthesized 10 mer length DNA oligos covering the sequence of S100p1 (Table 5). Unfortunately, the 10 mer length oligo lost the conformational mobility shift in PAGE (FIG. 13C). We then tested the mobility shift with 20 mer oligos. […]
# [7] = Surface plasmon resonance (SPR) of biotin-labeled oligos with IAA; type: binding; settings: biotin labeled oligo on streptavidin sensor chip
# Description: Surface plasmon resonance (SPR). To identify the binding activity of the metabolite IAA and S100A8 promoter sequence, SPR experiments were conducted on an OPENSPR™ (Nicoya, Lifesciences, CA). Experiments were performed on a streptavidin sensor (Nicoya, Lifesciences). SPR was run at a flow rate of 20 μl/min using HBS running buffer (20 mM HEPES, 150 mM NaCl, pH 7.4). First, the streptavidin sensor chip was cleaned with octyl β-D-glucopyranoside (40 mM) and CHAPS (20 mM). 200 μl of biotin-conjugated oligos (1 μg/ml, Table 5) were injected on the sensor chip for 10 minutes until a stable resonance was obtained. After immobilization of bio-oligo, the surface was blocked with BSA (3%) in running buffer. After a stable signal was obtained, IAA (10 nM) was run over the immobilized bio-oligo until a stable resonance was obtained. A negative control test was also performed by injecting IAA onto a blank sensor chip to check for non-specific binding. The sensograms were analyzed using TraceDrawer kinetic analysis software.
# [8] = added to ex vivo cultured microglial cells from young mice
molecule,measurement,setting,value
"C/C=C/C(=O)O [CA, crotonic acid]",effect on the microglia (cleaved caspase-3),microglial cells [1]; S100A8 deficient microglia cells,abolished
same,cleaved caspase-3,microglial cells [1]; [8],increasing
same,cleaved poly(-ADP-ribose) polymerase (PARP),microglial cells [1]; [8],increasing
same,ABs released into the culture supernatants,microglial cells [2],increase
NCCCC(=O)O [GABA],metabolite within the Bio-S100p1-G complex (LC-MS),[3],did not find
NCCCC[C@H](N)C(=O)O [lysine],metabolite within the Bio-S100p1-G complex (LC-MS),[3],did not find
"S100p1-G-Mut: CTGTATGCAA TTGGCCAAGC (SEQ ID NO: 9), mutant control oligo (DNA CTGTATGCAATTGGCCAAGC; DNA, backbone and methylation of C not given here; further chemistry not fully specified)",IAA in CSF (HPLC),[4],not seen
same,memory and spatial learning (MWM),[5],not seen
"S100p1: CTGTGGGCAG CTGGCAAGC TTTCCTCTATAAAAGCAGCTGACACTTAGCCTCACAT (SEQ ID NO: 7), −57 . . . −1 (DNA CTGTGGGCAGCTGGCCAAGCTTTCCTCTATAAAAGCAGCTGACACTTAGCCTCACAT; DNA, backbone and methylation of C not given here; further chemistry not fully specified)",mobility shift on native PAGE after incubation with IAA,[6],mobility shifted
same,interaction with IAA (SPR),[7],targeted by IAA
"hS100A8p: AGCTGTGGGCAGCTGGCCAAGCCTAA (SEQ ID NO: 39), human S100A8 promoter oligo (DNA, backbone and methylation of C not given here; further chemistry not fully specified)",mobility shift on native PAGE after incubation with IAA,[6],binds

# From patent US20250136997A1, “COMPOSITIONS FOR SEQUESTERING ISOAMYL AMINE AND METHODS OF USE THEREFOR” (University of Louisville Research Foundation, Inc., priority 2023, published 2025)
